Source: patent publication US11986450B2, “Methods and compositions for treating infection and inflammation with selenocyanate” (National Jewish Health, priority 2017, dated 2024)

What was measured:
[1] = system: E. coli: AB1157; test: Viability after HOSCN exposure
[2] = system: B. vietnameisis; test: Bacterial sensitivity towards HOSCN killing; format: cell-based, Burkholderia cepacia complex (BCC); conditions: HOSCN flux for 2 hours, GOX/LPO/SCN system, pH 7.4
Procedure: (§1) FIGS. 11A-11D. […] A lactoperoxidase (LPO) system was used to generate increasing fluxes of either HOSCN or HOSeCN in presence of 400 μM of either ^−SCN or ^−SeCN. LPO in the presence of a hydrogen peroxide generating system (glucose oxidase, GOX) can convert both thiocyanate and selenocyante to their respective hypopseudohalous acid species (HOSCN and HOSeCN) that are biocides. […] Bacterial inoculums (10^6 colony forming units, CFU) were incubated with host defense system for 2 hours at room temperature and bacteria were plated on LB agar plates and cell viability was determined by dilution and counting CFUs.
(§2) LPO in the presence of a hydrogen peroxide generating system (glucose oxidase, GOX) can convert both thiocyanate and selenocyante to their respective hypopseudohalous acid species (HOSCN and HOSeCN) that are biocides. […] Bacterial inoculums (10^6 colony forming units, CFU) were incubated with host defense system for 2 hours at room temperature and bacteria were plated on LB agar plates and cell viability was determined by dilution and counting CFUs. Lethal concentrations that kill 50% of bacteria (LC50) were determined by non-linear curve fitting the data.
(§3) Bacteria were incubated for 2 hour with LPO, ^−SCN or SeCN, glucose and increasing amounts of GOX. The flux (HOX) of either HOSCN or HOSeCN was determined from standard curves of GOX/LPO and either HOSCN or HOSeCN. LC50 values were determined by curve fitting the data with nonlinear regression of log (agonist) vs normalized response.

[3] = system: B. cenocepacia; test: Bacterial sensitivity towards HOSCN killing; format: cell-based, Burkholderia cepacia complex (BCC); conditions: CF sputum isolate, HOSCN flux for 2 hours, GOX/LPO/SCN system, pH 7.4
Procedure: as §1, §2, §3

[4] = system: B. multivorans 41; test: Bacterial sensitivity towards HOSCN killing; format: cell-based, Burkholderia cepacia complex (BCC); conditions: B. multivorans 41, CF sputum isolate; HOSCN flux for 2 hours, GOX/LPO/SCN system, pH 7.4
Procedure: as §1, §2, §3

[5] = system: B. dolsa; test: Bacterial sensitivity towards HOSCN killing; format: cell-based, Burkholderia cepacia complex (BCC); conditions: CF sputum isolate, HOSCN flux for 2 hours, GOX/LPO/SCN system, pH 7.4
Procedure: as §1, §2, §3

[6] = target: recombinant E. coli Cys-TrxR (Escherichia coli, UniProt P0A9P4); test: Kinetic analysis of HOSCN metabolism and inhibition; format: biochemical
Source text: FIGS. 3A-3B. Kinetic analysis of HOSCN metabolism by recombinant mouse Sec-TrxR and recombinant E. coli Cys-TrxR. […] Sec-TrxR forms that lack a selenocysteine (Sec489Cys) or truncated by the last 8 amino acids (D8) had diminished activity.

[7] = system: AMT-9; test: Bacterial sensitivity towards HOSCN killing; format: cell-based, Pseudomonas aeruginosa (PA); conditions: AMT-9, CF sputum isolate; HOSCN flux for 2 hours, GOX/LPO/SCN system, pH 7.4
Procedure: as §1, §2, §3

[8] = system: PA-T; test: Bacterial sensitivity towards HOSCN killing; format: cell-based, Pseudomonas aeruginosa (PA); conditions: CF sputum isolate, HOSCN flux for 2 hours, GOX/LPO/SCN system, pH 7.4
Procedure: as §1, §2, §3

[9] = system: PAO1; test: Bacterial sensitivity towards HOSCN killing; format: cell-based, Pseudomonas aeruginosa (PA); conditions: HOSCN flux for 2 hours, GOX/LPO/SCN system, pH 7.4
Procedure: as §1, §2, §3

[10] = system: PA-X; test: Bacterial sensitivity towards HOSCN killing; format: cell-based, Pseudomonas aeruginosa (PA); conditions: CF sputum isolate, HOSCN flux for 2 hours, GOX/LPO/SCN system, pH 7.4
Procedure: as §1, §2, §3

[11] = system: PA 39; test: Bacterial sensitivity towards HOSCN killing; format: cell-based, Pseudomonas aeruginosa (PA); conditions: PA 39, CF sputum isolate; HOSCN flux for 2 hours, GOX/LPO/SCN system, pH 7.4
Procedure: as §1, §2, §3

[12] = system: P. aeruginosa: AMT0027L; test: Viability after HOSCN exposure; conditions: late disease antibiotic-resistant CF isolate
[13] = target: DmTrxR (containing Cys) (Drosophila melanogaster, UniProt P91938); test: Inactivation of TrxR by oxidants; format: biochemical
Procedure: (§4) Based on data, it is expected that Sec-TrxR1 is able to metabolize both HOSCN and HOSeCN but not HOCl, and that Cys-TrxR's is unable to metabolize these oxidants. The active site Cys or Sec residue of each respective enzyme is oxidized to either Cys-SO2^− or Sec-SeO2^−. The Cys-TrxR cannot recover from this oxidation while the Sec-TrxR can. To test this, an inactivation assay is performed followed by structural analysis of the protein by MS. In the inactivation assay, (i) enzymes are reduced with NADPH, (ii) the enzymes are treated with oxidant followed by desalting to remove oxidant, and (iii) the enzyme is assayed for activity. […] The proteins are proteolyzed followed by LC-MS analyses. The LC-MS profiles are compared to control samples not treated with oxidant. This determines the exact mechanism of inactivation for each enzyme. […] This would explain why HOCl is highly inflammatory (nonspecific oxidation), and why HOSCN is used as a bactericide because it can rapidly inactivate proteins/enzyme by oxidation of sulfur amino acids (Cys, Met), but can be metabolized by the host cell by Sec-TrxR.

[14] = target: Sec-containing TrxR2 (Sec-TrxR2) (Mus musculus, UniProt Q9JLT4); test: Inactivation of TrxR by oxidants; format: biochemical
Procedure: as §4

[15] = system: P. aeruginosa: AMT0145L; test: Viability after HOSCN exposure; conditions: late disease antibiotic-resistant CF isolate
[16] = system: MRSA 44; test: Bacterial sensitivity towards HOSCN killing; format: cell-based, methicillin-resistant Staphylococcus aureus (MRSA); conditions: MRSA 44, CF sputum isolate; HOSCN flux for 2 hours, GOX/LPO/SCN system, pH 7.4
Procedure: as §1, §2, §3

[17] = system: MRSA 43; test: Bacterial sensitivity towards HOSCN killing; format: cell-based, methicillin-resistant Staphylococcus aureus (MRSA); conditions: MRSA 43, CF sputum isolate; HOSCN flux for 2 hours, GOX/LPO/SCN system, pH 7.4
Procedure: as §1, §2, §3

[18] = system: MRSA 46; test: Bacterial sensitivity towards HOSCN killing; format: cell-based, methicillin-resistant Staphylococcus aureus (MRSA); conditions: MRSA 46, CF sputum isolate; HOSCN flux for 2 hours, GOX/LPO/SCN system, pH 7.4
Procedure: as §1, §2, §3

[19] = system: MRSA 45; test: Bacterial sensitivity towards HOSCN killing; format: cell-based, methicillin-resistant Staphylococcus aureus (MRSA); conditions: MRSA 45, CF sputum isolate; HOSCN flux for 2 hours, GOX/LPO/SCN system, pH 7.4
Procedure: as §1, §2, §3

[20] = system: P. aeruginosa: AMT0058L; test: HOSCN reductase activity
[21] = Viability after HOSCN exposure; conditions: human, human bronchial epithelial (16HBE) cells

recombinant E. coli Cys-TrxR, sequence (P0A9P4 whole entry, the tested form may be a part): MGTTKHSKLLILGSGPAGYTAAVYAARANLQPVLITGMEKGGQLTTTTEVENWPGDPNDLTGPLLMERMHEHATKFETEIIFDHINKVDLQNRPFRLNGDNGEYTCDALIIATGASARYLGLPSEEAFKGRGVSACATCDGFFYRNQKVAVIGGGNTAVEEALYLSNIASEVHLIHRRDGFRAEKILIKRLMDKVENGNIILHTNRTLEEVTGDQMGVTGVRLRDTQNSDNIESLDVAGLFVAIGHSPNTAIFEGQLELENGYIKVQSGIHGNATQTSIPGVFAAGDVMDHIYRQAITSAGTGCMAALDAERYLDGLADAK
Sec-containing TrxR2 (Sec-TrxR2), sequence (Q9JLT4 35-524): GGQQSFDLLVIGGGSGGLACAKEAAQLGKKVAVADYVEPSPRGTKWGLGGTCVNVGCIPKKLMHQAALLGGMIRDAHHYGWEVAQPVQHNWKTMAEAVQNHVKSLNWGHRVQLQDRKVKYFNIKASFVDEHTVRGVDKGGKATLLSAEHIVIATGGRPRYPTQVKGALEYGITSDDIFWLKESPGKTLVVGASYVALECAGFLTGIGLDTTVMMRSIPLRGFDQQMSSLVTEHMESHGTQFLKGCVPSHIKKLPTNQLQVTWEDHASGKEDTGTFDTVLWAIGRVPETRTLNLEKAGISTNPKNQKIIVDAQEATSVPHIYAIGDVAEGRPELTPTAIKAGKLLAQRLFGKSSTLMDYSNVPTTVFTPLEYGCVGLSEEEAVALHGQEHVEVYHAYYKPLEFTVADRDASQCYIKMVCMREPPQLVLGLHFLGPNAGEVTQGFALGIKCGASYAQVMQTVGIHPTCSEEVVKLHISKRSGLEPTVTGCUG
DmTrxR (containing Cys), sequence (P91938 112-596 limits assumed): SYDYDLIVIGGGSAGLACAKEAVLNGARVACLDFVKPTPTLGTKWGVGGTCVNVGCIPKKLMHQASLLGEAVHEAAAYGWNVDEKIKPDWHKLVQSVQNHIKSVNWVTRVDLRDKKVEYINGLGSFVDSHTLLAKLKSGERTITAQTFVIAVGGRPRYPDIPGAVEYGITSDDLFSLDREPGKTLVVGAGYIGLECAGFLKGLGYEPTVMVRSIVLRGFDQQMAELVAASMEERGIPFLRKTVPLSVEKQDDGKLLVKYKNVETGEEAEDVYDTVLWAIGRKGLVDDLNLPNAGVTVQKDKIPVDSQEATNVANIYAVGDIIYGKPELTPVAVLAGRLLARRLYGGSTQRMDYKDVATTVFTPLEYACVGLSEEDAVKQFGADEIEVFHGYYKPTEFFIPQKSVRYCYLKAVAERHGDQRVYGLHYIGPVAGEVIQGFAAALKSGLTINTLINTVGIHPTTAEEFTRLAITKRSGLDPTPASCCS

N#CSO [HOSCN, hypothiocyanite]
Viability (%) [1]: 0% | HOSCN IC50 [2]: 64 µM/h | HOSCN IC50 [3]: 59 µM/h | HOSCN IC50 [4]: 18 µM/h | HOSCN IC50 [5]: 79 µM/h | IC50 [6]: 2.75 µM | HOSCN metabolism activity ([6]; similar conditions): no measurable activity | HOSCN IC50 [7]: 5 µM/h | HOSCN IC50 [8]: 48 µM/h | HOSCN IC50 [9]: 18 µM/h | HOSCN IC50 [10]: 13 µM/h | HOSCN IC50 [11]: 5 µM/h | Viability (%) [12]: 0% | Inactivation of DmTrxR by oxidant [13]: is inactivated | Inactivation of Sec-TrxR2 by oxidant [14]: resists inactivation | Viability (%) [15]: 24.8 ± 2.5% | HOSCN IC50 [16]: 260 µM/h | HOSCN IC50 [17]: 450 µM/h | HOSCN IC50 [18]: 10 µM/h | HOSCN IC50 [19]: 24 µM/h | Apparent Vmax (HOSCN reductase activity) [20]: 1.2 ± 0.2 nmol/mg/min | viability [21]: 96.3 ± 1.6%
